Experimental data reported in PubChem BioAssay AID1963845 (Molecular Pharmacology Branch, DTP, NCI, 2024).

System: 429239-143-T-J1-PDC complex spheroid viability
Assay: Anticancer human tumor 429239-143-T-J1-PDC patient-derived small cell lung carcinoma cell line growth inhibition [POLQ]
Conditions: for IC50: curve of first compound; for viability, T/C: stronger effect = lower value
Outline: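 Three-cell-type spheroids modelling solid tumor plus stroma served as the readout system; POL inhibitors were tested individually and in combination, concentration ranges set by clinical Cmax where known.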

[1] = second compound 0.0316 µM, first compound 0.0316 µM
[2] = second compound 0.0316 µM, first compound 0.1 µM
[3] = second compound 0.0316 µM, first compound 0.316 µM
[4] = second compound 0.0316 µM, first compound 1 µM
[5] = second compound 0.0316 µM, first compound 3.16 µM
[6] = second compound 0.0316 µM, first compound 10 µM
[7] = second compound 0.1 µM, first compound 0.0316 µM
[8] = second compound 0.1 µM, first compound 0.1 µM
[9] = second compound 0.1 µM, first compound 0.316 µM
[10] = second compound 0.1 µM, first compound 1 µM
[11] = second compound 0.1 µM, first compound 3.16 µM
[12] = second compound 0.1 µM, first compound 10 µM
[13] = second compound 0.316 µM, first compound 0.0316 µM
[14] = second compound 0.316 µM, first compound 0.1 µM
[15] = second compound 0.316 µM, first compound 0.316 µM
[16] = second compound 0.316 µM, first compound 1 µM
[17] = second compound 0.316 µM, first compound 3.16 µM
[18] = second compound 0.316 µM, first compound 10 µM
[19] = second compound 1 µM, first compound 0.0316 µM
[20] = second compound 1 µM, first compound 0.1 µM
[21] = second compound 1 µM, first compound 0.316 µM
[22] = second compound 1 µM, first compound 1 µM
[23] = second compound 1 µM, first compound 3.16 µM
[24] = second compound 1 µM, first compound 10 µM
[25] = second compound 3.16 µM, first compound 0.0316 µM
[26] = second compound 3.16 µM, first compound 0.1 µM
[27] = second compound 3.16 µM, first compound 0.316 µM
[28] = second compound 3.16 µM, first compound 1 µM
[29] = second compound 3.16 µM, first compound 3.16 µM
[30] = second compound 3.16 µM, first compound 10 µM
[31] = second compound 10 µM, first compound 0.0316 µM
[32] = second compound 10 µM, first compound 0.1 µM
[33] = second compound 10 µM, first compound 0.316 µM
[34] = second compound 10 µM, first compound 1 µM
[35] = second compound 10 µM, first compound 3.16 µM
[36] = second compound 10 µM, first compound 10 µM
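Note: luminescence signal used as surrogate measure of viable cells; spheroids exposed to compounds for seven days before readout.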
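Throughout, for viability, T/C: 100% = DMSO vehicle control viability as luminescence relative to vehicle.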

O=c1[nH]cc(F)c(=O)[nH]1 + COC1C(OC(N)=O)C(O)C(Oc2ccc3c(O)c(NC(=O)c4ccc(O)c(CC=C(C)C)c4)c(=O)oc3c2C)OC1(C)C
IC50 (second compound 0.0316 µM): 9.58 µM
IC50 (second compound 0.1 µM): 7.31 µM
IC50 (second compound 0.316 µM): 6.05 µM
IC50 (second compound 1 µM): 9.05 µM
IC50 (second compound 3.16 µM): 7.96 µM
IC50 (second compound 10 µM): 6.66 µM
viability, T/C [1]: 114%
viability, T/C [2]: 111%
viability, T/C [3]: 108%
viability, T/C [4]: 84.5%
viability, T/C [5]: 61.6%
viability, T/C [6]: 49%
viability, T/C [7]: 116%
viability, T/C [8]: 111%
viability, T/C [9]: 105%
viability, T/C [10]: 96.1%
viability, T/C [11]: 57%
viability, T/C [12]: 47.6%
viability, T/C [13]: 96.7%
viability, T/C [14]: 98%
viability, T/C [15]: 97%
viability, T/C [16]: 78.1%
viability, T/C [17]: 62.9%
viability, T/C [18]: 40.9%
viability, T/C [19]: 86.1%
viability, T/C [20]: 104%
viability, T/C [21]: 96.4%
viability, T/C [22]: 82.3%
viability, T/C [23]: 70.5%
viability, T/C [24]: 47.9%
viability, T/C [25]: 99.2%
viability, T/C [26]: 98.8%
viability, T/C [27]: 93%
viability, T/C [28]: 84.1%
viability, T/C [29]: 75.9%
viability, T/C [30]: 43.4%
viability, T/C [31]: 89%
viability, T/C [32]: 97.6%
viability, T/C [33]: 93.8%
viability, T/C [34]: 85.4%
viability, T/C [35]: 57.7%
viability, T/C [36]: 45.8%

CCc1c2c(nc3ccc(O)cc13)-c1cc3c(c(=O)n1C2)COC(=O)[C@]3(O)CC + Cc1cccc(N(C)C(=O)C2C(O)CCN2c2nc(C)cc(C(F)(F)F)c2C#N)c1
IC50 (second compound 0.0316 µM): < 0.00316 µM
IC50 (second compound 0.1 µM): < 0.00316 µM
IC50 (second compound 0.316 µM): < 0.00316 µM
IC50 (second compound 1 µM): < 0.00316 µM
IC50 (second compound 3.16 µM): < 0.00316 µM
IC50 (second compound 10 µM): < 0.00316 µM
viability, T/C (second compound 0.0316 µM, first compound 0.00316 µM): 16.9%
viability, T/C (second compound 0.0316 µM, first compound 0.01 µM): 17.8%
viability, T/C [1]: 16.1%
viability, T/C [2]: 17.5%
viability, T/C [3]: 13.3%
viability, T/C [4]: 5.41%
viability, T/C (second compound 0.1 µM, first compound 0.00316 µM): 17.8%
viability, T/C (second compound 0.1 µM, first compound 0.01 µM): 18.5%
viability, T/C [7]: 17.6%
viability, T/C [8]: 19%
viability, T/C [9]: 13.6%
viability, T/C [10]: 4.17%
viability, T/C (second compound 0.316 µM, first compound 0.00316 µM): 16.2%
viability, T/C (second compound 0.316 µM, first compound 0.01 µM): 20.4%
viability, T/C [13]: 16.4%
viability, T/C [14]: 17.6%
viability, T/C [15]: 14.1%
viability, T/C [16]: 6.26%
viability, T/C (second compound 1 µM, first compound 0.00316 µM): 21.1%
viability, T/C (second compound 1 µM, first compound 0.01 µM): 16.7%
viability, T/C [19]: 17.5%
viability, T/C [20]: 16.5%
viability, T/C [21]: 17.5%
viability, T/C [22]: 3.94%
viability, T/C (second compound 3.16 µM, first compound 0.00316 µM): 19.9%
viability, T/C (second compound 3.16 µM, first compound 0.01 µM): 17.4%
viability, T/C [25]: 21.6%
viability, T/C [26]: 16.1%
viability, T/C [27]: 14.9%
viability, T/C [28]: 5.15%
viability, T/C (second compound 10 µM, first compound 0.00316 µM): 18.9%
viability, T/C (second compound 10 µM, first compound 0.01 µM): 17.5%
viability, T/C [31]: 20.7%
viability, T/C [32]: 17.5%
viability, T/C [33]: 17.9%
viability, T/C [34]: 3.41%

COc1ccc([C@@H](O)c2cc(-c3ncnc4cc(N5CCOCC5)ccc34)c(F)cc2Cl)nn1 + Cc1cccc(N(C)C(=O)C2C(O)CCN2c2nc(C)cc(C(F)(F)F)c2C#N)c1
IC50 (second compound 0.0316 µM): 3.25 µM
IC50 (second compound 0.1 µM): 2.79 µM
IC50 (second compound 0.316 µM): 2.48 µM
IC50 (second compound 1 µM): 3.32 µM
IC50 (second compound 3.16 µM): 2.88 µM
IC50 (second compound 10 µM): 2.49 µM
viability, T/C [1]: 103%
viability, T/C [2]: 95.7%
viability, T/C [3]: 94.4%
viability, T/C [4]: 70.4%
viability, T/C [5]: 53.5%
viability, T/C [6]: 10.8%
viability, T/C [7]: 101%
viability, T/C [8]: 107%
viability, T/C [9]: 106%
viability, T/C [10]: 80.7%
viability, T/C [11]: 47.3%
viability, T/C [12]: 9.36%
viability, T/C [13]: 105%
viability, T/C [14]: 94.5%
viability, T/C [15]: 102%
viability, T/C [16]: 90.1%
viability, T/C [17]: 39.2%
viability, T/C [18]: 14.3%
viability, T/C [19]: 105%
viability, T/C [20]: 95.9%
viability, T/C [21]: 98.7%
viability, T/C [22]: 82.3%
viability, T/C [23]: 51.9%
viability, T/C [24]: 9.82%
viability, T/C [25]: 99.5%
viability, T/C [26]: 98.8%
viability, T/C [27]: 97.2%
viability, T/C [28]: 79.5%
viability, T/C [29]: 47.7%
viability, T/C [30]: 8.69%
viability, T/C [31]: 122%
viability, T/C [32]: 86.7%
viability, T/C [33]: 89.5%
viability, T/C [34]: 64.3%
viability, T/C [35]: 57.1%
viability, T/C [36]: 8.38%
